Assay results published in ChEMBL document CHEMBL1201862, “PubChem BioAssay data set” (2004).
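Briefly, cells in 96-well plates were exposed to five compound concentrations for 48 h, and endpoints were estimated by linear interpolation. Here, GI50 denotes the concentration required for 50% inhibition of growth.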 Activity calls are given as the source filed them. Rule as the data show it: active = GI50 up to about 1.1 µM and inactive = higher.

What was measured:
Assay in all cases: growth of human tumour cells (NCI), 48 h
RXF 393 = tested on: RXF 393
SK-MEL-2 = tested on: SK-MEL-2
IGROV-1 = tested on: IGROV-1
Hs-578T = tested on: Hs-578T
ACHN = tested on: ACHN
EKVX = tested on: EKVX
M14 = tested on: M14
OVCAR-8 = tested on: OVCAR-8
HL-60 = tested on: HL-60
HOP-92 = tested on: HOP-92
TK-10 = tested on: TK-10
SW-620 = tested on: SW-620
SK-MEL-5 = tested on: SK-MEL-5
NCI-H460 = tested on: NCI-H460
PC-3 = tested on: PC-3
NCI-H23 = tested on: NCI-H23
LOX IMVI = tested on: LOX IMVI
MOLT-4 = tested on: MOLT-4
COLO 205 = tested on: COLO 205
HCC 2998 = tested on: HCC 2998

Measured: GI50

COc1cc(NCCC(=O)O)c2ncccc2c1
inactive: RXF 393 > 100 µM | SK-MEL-2 38.8 µM | IGROV-1 > 100 µM | Hs-578T 23.9 µM | ACHN > 100 µM | EKVX > 100 µM | M14 > 100 µM | OVCAR-8 > 100 µM | HL-60 > 100 µM | HOP-92 > 100 µM | TK-10 > 100 µM | SW-620 > 100 µM | SK-MEL-5 > 100 µM | NCI-H460 > 100 µM | PC-3 > 100 µM | NCI-H23 > 100 µM | LOX IMVI > 100 µM | MOLT-4 > 100 µM

O=C(O)c1oc(C(=O)O)c(C(=O)O)c1C(=O)O
inactive: RXF 393 > 100 µM | SK-MEL-2 > 100 µM | IGROV-1 > 100 µM | Hs-578T > 100 µM | ACHN > 100 µM | EKVX > 100 µM | M14 > 100 µM | OVCAR-8 > 100 µM | HL-60 > 100 µM | HOP-92 > 100 µM | TK-10 > 100 µM | SW-620 > 100 µM | SK-MEL-5 > 100 µM | NCI-H460 > 100 µM | PC-3 > 100 µM | NCI-H23 > 100 µM | LOX IMVI > 100 µM | MOLT-4 > 100 µM

O=C1NC(=S)NC(=O)C1C(c1ccccc1[N+](=O)[O-])C1C(=O)NC(=S)NC1=O.c1ccncc1
inactive: RXF 393 > 100 µM | SK-MEL-2 > 100 µM | Hs-578T > 100 µM | ACHN > 100 µM | M14 > 100 µM | OVCAR-8 > 100 µM | HL-60 26.3 µM | HOP-92 > 100 µM | TK-10 > 100 µM | SW-620 > 100 µM | SK-MEL-5 > 100 µM | NCI-H460 > 100 µM | PC-3 > 100 µM | NCI-H23 > 100 µM | COLO 205 > 100 µM | LOX IMVI > 100 µM | MOLT-4 > 100 µM

Cc1cc(C)c2c(c1)CC1(Cc3c(ccc(C)c3C)C1=O)C2=O (stereo unspecified)
inactive: RXF 393 > 100 µM | HCC 2998 > 100 µM | SK-MEL-2 > 100 µM | IGROV-1 > 100 µM | Hs-578T > 100 µM | ACHN > 100 µM | EKVX > 100 µM | M14 > 100 µM | OVCAR-8 > 100 µM | HL-60 > 100 µM | HOP-92 > 100 µM | TK-10 > 100 µM | SW-620 > 100 µM | SK-MEL-5 > 100 µM | NCI-H460 > 100 µM | PC-3 > 100 µM | NCI-H23 > 100 µM | COLO 205 > 10 µM | MOLT-4 > 100 µM

COc1ccc(C(=O)/C=C/c2cccnc2)cc1OC
inactive: RXF 393 5.81 µM | SK-MEL-2 13.2 µM | IGROV-1 9.64 µM | Hs-578T 14.6 µM | ACHN 13.8 µM | EKVX 15.1 µM | M14 13.4 µM | OVCAR-8 5.81 µM | HL-60 2.36 µM | HOP-92 13 µM | TK-10 15.7 µM | SK-MEL-5 14.1 µM | PC-3 14.7 µM | NCI-H23 10.6 µM | COLO 205 10.9 µM | LOX IMVI 1.58 µM | MOLT-4 3.33 µM

C[C@]12CC/C(=N\O)C=C1CC[C@@H]1[C@@H]2CC[C@]2(C)C(=N/O)/C(=C/c3ccc([N+](=O)[O-])cc3)C[C@@H]12
inactive: RXF 393 59.6 µM | SK-MEL-2 3.91 µM | IGROV-1 2.86 µM | Hs-578T 3.5 µM | ACHN 5.21 µM | M14 4.05 µM | HL-60 1.85 µM | HOP-92 3.3 µM | TK-10 6.41 µM | SW-620 5.42 µM | SK-MEL-5 3.21 µM | NCI-H460 44.8 µM | PC-3 4.8 µM | NCI-H23 6 µM | COLO 205 4.9 µM | LOX IMVI 5.11 µM | MOLT-4 2.55 µM

Clc1ccc2c(c1)CC1C[N+]3=C(CCCC3)C1=C2 (stereo unspecified)
inactive: RXF 393 > 100 µM | SK-MEL-2 > 100 µM | IGROV-1 > 100 µM | Hs-578T > 100 µM | ACHN > 100 µM | EKVX 78.7 µM | M14 53.8 µM | OVCAR-8 60.7 µM | HL-60 40 µM | HOP-92 63.5 µM | TK-10 72.8 µM | SW-620 47.9 µM | SK-MEL-5 50.4 µM | NCI-H460 40.1 µM | PC-3 60.5 µM | NCI-H23 69 µM | COLO 205 58.1 µM | LOX IMVI > 100 µM | MOLT-4 > 100 µM

COc1ccc2c(c1)CCCN1Cc3ccccc3CC21 (stereo unspecified)
inactive: RXF 393 48.3 µM | HCC 2998 19.1 µM | IGROV-1 49.4 µM | Hs-578T > 100 µM | ACHN > 100 µM | EKVX 98.4 µM | M14 39.5 µM | OVCAR-8 > 100 µM | HL-60 28.8 µM | HOP-92 30.7 µM | TK-10 > 100 µM | SW-620 65.6 µM | SK-MEL-5 22.5 µM | NCI-H460 76 µM | PC-3 78.9 µM | NCI-H23 > 100 µM | COLO 205 40.7 µM | LOX IMVI 43.5 µM | MOLT-4 54.2 µM

CC1=NC(=O)C(C)(c2ccccc2)N1CCc1ccccc1 (stereo unspecified)
inactive: RXF 393 24.7 µM | HCC 2998 27.4 µM | SK-MEL-2 > 100 µM | IGROV-1 57.8 µM | Hs-578T > 100 µM | ACHN > 100 µM | EKVX > 100 µM | M14 > 100 µM | OVCAR-8 > 100 µM | HL-60 51.5 µM | HOP-92 16.9 µM | TK-10 > 100 µM | SW-620 61.8 µM | SK-MEL-5 27 µM | PC-3 44.7 µM | NCI-H23 > 100 µM | COLO 205 27.4 µM | LOX IMVI 58.7 µM | MOLT-4 15.9 µM

CCCCCCCCCCCC[C@@H](O)[C@H]1CC[C@H]([C@H](O)CC[C@H](O)[C@@H]2CC[C@@H](CCCCCCCC3=C[C@H](C)OC3=O)O2)O1
inactive: RXF 393 > 50 µM | HCC 2998 > 50 µM | SK-MEL-2 > 50 µM | IGROV-1 > 50 µM | Hs-578T 3.94 µM | ACHN > 50 µM | EKVX > 50 µM | M14 > 50 µM | OVCAR-8 > 50 µM | HL-60 1.74 µM | HOP-92 > 50 µM | TK-10 > 50 µM | SW-620 > 50 µM | NCI-H460 2.54 µM | PC-3 > 50 µM | NCI-H23 > 18.1 µM | COLO 205 > 50 µM | LOX IMVI > 27.2 µM | MOLT-4 > 15.2 µM

COc1cc(-c2oc3c(OC)cc(OC)c(O)c3c(=O)c2OC)cc(OC)c1OC
inactive: RXF 393 8.28 µM | HCC 2998 > 100 µM | IGROV-1 85.5 µM | Hs-578T 2.93 µM | ACHN 8.49 µM | EKVX > 100 µM | M14 > 100 µM | OVCAR-8 5.21 µM | HL-60 > 100 µM | HOP-92 15.6 µM | TK-10 > 100 µM | SW-620 6.28 µM | SK-MEL-5 20.7 µM | NCI-H460 4.47 µM | PC-3 9.57 µM | NCI-H23 36.3 µM | COLO 205 > 100 µM | LOX IMVI 3.24 µM | MOLT-4 > 100 µM
